Assay results published in patent US11524966B1 (Valo Early Discovery, Inc., priority 2017, dated 2022).

Molecular target: T1, USP28 (USP28-5(1-1077)-TEV-6*His; LifeSensors) (Homo sapiens, UniProt Q96RU2)
T1 construct: construct USP28 (USP28-5(1-1077)-TEV-6*His; LifeSensors); TEV cleavage site (C); 6xHis (C); purchased LifeSensors
T1 sequence (Q96RU2 1-1077): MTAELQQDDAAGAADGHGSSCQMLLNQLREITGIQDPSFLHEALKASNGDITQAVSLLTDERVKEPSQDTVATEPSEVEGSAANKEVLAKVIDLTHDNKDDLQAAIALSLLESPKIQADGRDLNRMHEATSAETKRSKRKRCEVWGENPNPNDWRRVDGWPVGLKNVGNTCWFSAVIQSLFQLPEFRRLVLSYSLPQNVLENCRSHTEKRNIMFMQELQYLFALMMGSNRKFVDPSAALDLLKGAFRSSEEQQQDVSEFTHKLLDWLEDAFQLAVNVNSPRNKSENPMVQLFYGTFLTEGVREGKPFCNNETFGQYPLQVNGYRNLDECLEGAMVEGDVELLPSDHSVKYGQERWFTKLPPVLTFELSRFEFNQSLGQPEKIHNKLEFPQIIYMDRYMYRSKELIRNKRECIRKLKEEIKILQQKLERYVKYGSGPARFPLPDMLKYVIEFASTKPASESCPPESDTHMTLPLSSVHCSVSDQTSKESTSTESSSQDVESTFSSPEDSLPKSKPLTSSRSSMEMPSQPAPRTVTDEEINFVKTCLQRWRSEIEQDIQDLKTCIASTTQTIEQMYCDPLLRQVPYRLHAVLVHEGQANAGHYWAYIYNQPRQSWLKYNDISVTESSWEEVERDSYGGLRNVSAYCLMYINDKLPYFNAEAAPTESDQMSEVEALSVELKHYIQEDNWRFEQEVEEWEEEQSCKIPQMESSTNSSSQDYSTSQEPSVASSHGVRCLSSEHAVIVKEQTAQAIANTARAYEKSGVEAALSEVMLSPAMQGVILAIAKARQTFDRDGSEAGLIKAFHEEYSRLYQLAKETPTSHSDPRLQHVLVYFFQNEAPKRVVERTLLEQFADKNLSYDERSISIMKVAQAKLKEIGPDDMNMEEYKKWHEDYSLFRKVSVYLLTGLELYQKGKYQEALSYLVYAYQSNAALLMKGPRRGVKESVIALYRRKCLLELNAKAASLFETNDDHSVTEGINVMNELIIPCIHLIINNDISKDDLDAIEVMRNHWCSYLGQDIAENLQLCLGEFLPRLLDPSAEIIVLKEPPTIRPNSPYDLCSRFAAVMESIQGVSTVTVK
Test: Ubiquitin-Rhodamine 110 Assay for USP28 Activity, Example A-1(b)
Assay type: biochemical
Details: Ubiquitin-Rhodamine 110 assay, Example A-1(b)
Summary of the method: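 Single-point screening used 10 μM compound with 90 min room-temperature incubation; follow-up dose-responses (25 μM top, 3-fold) used 75 pM USP28 1-1077 construct, 30 min compound preincubation, 25 nM Ub-Rh110, 20 min reaction, citric acid quench. Rh110 fluorescence normalised to no-enzyme and DMSO controls; IC50 from 4-parameter logistic fit.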

**Q.** For `O=C(N[C@H]1COc2cc(N3CC4CCC(C3)N4)ccc2C1)c1cnc2c(c1)CCCO2` [Example 51, N-((3R)-7-(3,8-diazabicyclo[3.2.1]octan-3-yl)chroman-3-yl)-3,4-dihydro-2H-pyrano[2,3-b]pyridine-6-carboxamide], which “USP28 A-1(b) IC50 range” value is on record?
**A.** The value was “+ (>2 μM)”.

**Q.** How did the “USP28 A-1(b) IC50 range” value turn out when `O=C(N[C@H]1COc2cc(N3CCNCC3)ccc2C1)c1ccc(NCc2ccccc2)nc1` [Example 52, (R)-6-(benzylamino)-N-(7-(piperazin-1-yl)chroman-3-yl)nicotinamide] was run?
**A.** The value was “+ (>2 μM)”.

**Q.** `O=C(N[C@H]1COc2cc(N3CCNCC3)ccc2C1)c1cnc2c(c1)CC[C@@H]2O` [Example 58, (S)-7-hydroxy-N-((R )-7-(piperazin-1-yl)chroman-3-yl)-6,7-dihydro-5H-cyclopenta[b]pyridine-3-carboxamide] was tested. Which “USP28 A-1(b) IC50 range” value did it give?
**A.** Its value is “+ (>2 μM)”.

**Q.** With `Cc1ccc2c(N)c(C(=O)N[C@H]3COc4cc([C@@H]5CCNC[C@@H]5O)ccc4C3)sc2n1` [Example 63, 3-amino-N-((R)-7-((3R,4S)-3-hydroxypiperidin-4-yl)chroman-3-yl)-6-methylthieno[2,3-b]pyridine-2-carboxamide] as the compound, how does the “USP28 A-1(b) IC50 range” value read?
**A.** The value was “+++ (0.05-0.2 μM)”.

**Q.** For `C[C@H]1CCc2cc(C(=O)N[C@H]3COc4cc(N5CC6CCC(C5)N6)ccc4C3)cnc2N1` [Example 73, (7S)-N-((3R)-7-(3,8-diazabicyclo[3.2.1]octan-3-yl)chroman-3-yl)-7-methyl-5,6,7,8-tetrahydro-1,8-naphthyridine-3-carboxamide], which “USP28 A-1(b) IC50 range” value is on record?
**A.** The value was “+ (>2 μM)”.

**Q.** For `Cc1ccc2c(N)c(C(=O)N[C@H]3COc4cc(N5CCNCC5)c(F)c(F)c4C3)sc2n1` [Example 61, (R)-3-amino-N-(5,6-difluoro-7-(piperazin-1-yl)chroman-3-yl)-6-methylthieno[2,3-b]pyridine-2-carboxamide], which “USP28 A-1(b) IC50 range” value is on record?
**A.** The value was “+++ (0.05-0.2 μM)”.

**Q.** Which “USP28 A-1(b) IC50 range” value does the source give for `Cc1ccc2c(N)c(C(=O)N[C@H]3COc4cc(N5C[C@H]6CNC[C@@H]6C5)ccc4C3)sc2n1` [Example 43, 3-amino-N-((R)-7-((3aR,6aR)-hexahydropyrrolo[3,4-c]pyrrol-2(1H)-yl)chroman-3-yl)-6-methylthieno[2,3-b]pyridine-2-carboxamide] here?
**A.** Its value is “+ (>2 μM)”.

**Q.** How did the “USP28 A-1(b) IC50 range” value turn out when `Cc1ccc2c(N)c(C(=O)N[C@H]3COc4cc([C@H]5CCNC[C@H]5O)ccc4C3)sc2n1` [Example 62, 3-amino-N-((R)-7-((3S,4R)-3-hydroxypiperidin-4-yl)chroman-3-yl)-6-methylthieno[2,3-b]pyridine-2-carboxamide] was run?
**A.** Its value is “++++ (0.001-0.05 μM)”.

**Q.** For `O=C(N[C@H]1COc2cc(N3CCNCC3)ccc2C1)c1cnc2c(c1)CC[C@H]2O` [Example 57, (R)-7-hydroxy-N-((R)-7-(piperazin-1-yl)chroman-3-yl)-6,7-dihydro-5H-cyclopenta[b]pyridine-3-carboxamide], which “USP28 A-1(b) IC50 range” value is on record?
**A.** The value was “+ (>2 μM)”.

**Q.** For `Cc1ccc2c(N)c(C(=O)N[C@@H]3COc4cc(N5CCNCC5)cc(Cl)c4C3)sc2n1` [Example 49, (S)-3-amino-N-(5-chloro-7-(piperazin-1-yl)chroman-3-yl)-6-methylthieno[2,3-b]pyridine-2-carboxamide], which “USP28 A-1(b) IC50 range” value is on record?
**A.** The value was “+ (>2 μM)”.

**Q.** Which “USP28 A-1(b) IC50 range” value does the source give for `Cc1cnc2c(N)c(C(=O)N[C@H]3COc4c(C#N)c(N5CCNCC5)cc(F)c4C3)sc2n1` [Example 60, (R)-7-amino-N-(8-cyano-5-fluoro-7-(piperazin-1-yl)chroman-3-yl)-3-methylthieno[2,3-b]pyrazine-6-carboxamide] here?
**A.** Its value is “++ (0.2-2 μM)”.

**Q.** `CCc1cnc2sc(C(=O)N[C@H]3COc4cc(N5CCNCC5)ccc4C3)c(N)c2n1` [Example 36, (R)-7-amino-2-ethyl-N-(7-(piperazin-1-yl)chroman-3-yl)thieno[2,3-b]pyrazine-6-carboxamide] was tested. Which “USP28 A-1(b) IC50 range” value did it give?
**A.** Its value is “++ (0.2-2 μM)”.

**Q.** With `Cc1ccc2c(N)c(C(=O)N[C@@H]3COc4cc(N5C[C@H]6CNC[C@@H]6C5)ccc4C3)sc2n1` [Example 44, 3-amino-N-((S)-7-((3aR,6aR)-hexahydropyrrolo[3,4-c]pyrrol-2(1H)-yl)chroman-3-yl)-6-methylthieno[2,3-b]pyridine-2-carboxamide] as the compound, how does the “USP28 A-1(b) IC50 range” value read?
**A.** The value was “+ (>2 μM)”.

**Q.** How did the “USP28 A-1(b) IC50 range” value turn out when `Cc1nc2sc(C(=O)N[C@H]3COc4cc(N5CC6CCC(C5)N6)c(F)cc4C3)c(N)c2s1` [Example 47, N-((3R)-7-(3,8-diazabicyclo[3.2.1]octan-3-yl)-6-fluorochroman-3-yl)-6-amino-2-methylthieno[2,3-d]thiazole-5-carboxamide] was run?
**A.** Its value is “+ (>2 μM)”.

**Q.** `Cc1cnc2c(N)c(C(=O)N[C@H]3COc4cc(N5CC6CCC(C5)N6)c(F)cc4C3)sc2n1` (single isomer, unassigned) [Example 40] was tested. Which “USP28 A-1(b) IC50 range” value did it give?
**A.** Its value is “+++ (0.05-0.2 μM)”.

**Q.** `Cc1cnc2c(N)c(C(=O)N[C@@H]3COc4cc(N5CC6CCC(C5)N6)c(F)cc4C3)sc2n1` (single isomer, unassigned) [Example 41] was tested. Which “USP28 A-1(b) IC50 range” value did it give?
**A.** Its value is “+ (>2 μM)”.

**Q.** How did the “USP28 A-1(b) IC50 range” value turn out when `CCc1cnc2sc(C(=O)N[C@@H]3COc4cc(N5CCNCC5)ccc4C3)c(N)c2n1` [Example 37, (S)-7-amino-2-ethyl-N-(7-(piperazin-1-yl)chroman-3-yl)thieno[2,3-b]pyrazine-6-carboxamide] was run?
**A.** Its value is “+ (>2 μM)”.

**Q.** With `O=C(N[C@H]1COc2cc(N3CCNCC3)ccc2C1)c1cnc2c(ccn2C(F)F)c1` [Example 38, (R)-1-(difluoromethyl)-N-(7-(piperazin-1-yl)chroman-3-yl)-1H-pyrrolo[2,3-b]pyridine-5-carboxamide] as the compound, how does the “USP28 A-1(b) IC50 range” value read?
**A.** Its value is “+ (>2 μM)”.

**Q.** Which “USP28 A-1(b) IC50 range” value does the source give for `O=C(N[C@H]1COc2cc(N3CCNCC3)ccc2C1)c1cnc2c(ccn2Cc2ccccc2)c1` [Example 59, (R)-1-benzyl-N-(7-(piperazin-1-yl)chroman-3-yl)-1H-pyrrolo[2,3-b]pyridine-5-carboxamide] here?
**A.** Its value is “+++ (0.05-0.2 μM)”.

**Q.** Which “USP28 A-1(b) IC50 range” value does the source give for `C[C@@H](Nc1ccc(C(=O)N[C@H]2COc3cc(N4CCNCC4)ccc3C2)cn1)c1ccccc1` [Example 54, 6-(((R)-1-phenylethyl)amino)-N-((R)-7-(piperazin-1-yl)chroman-3-yl)nicotinamide] here?
**A.** Its value is “+ (>2 μM)”.

**Q.** With `Cc1nc2sc(C(=O)N[C@@H]3COc4cc(N5CC6CCC(C5)N6)c(F)cc4C3)c(N)c2s1` [Example 46, N-((3S)-7-(3 8-diazabicyclo[3.2.1]octan-3-yl)-6-fluorochroman-3-yl)-6-amino-2-methylthieno[2,3-d]thiazole-5-carboxamide] as the compound, how does the “USP28 A-1(b) IC50 range” value read?
**A.** Its value is “++ (0.2-2 μM)”.

**Q.** How did the “USP28 A-1(b) IC50 range” value turn out when `Cc1nc2sc(C(=O)N[C@H]3COc4c(F)c(N5CCNCC5)cc(F)c4C3)c(N)c2s1` [Example 56, (R)-6-amino-N-(5,8-difluoro-7-(piperazin-1-yl)chroman-3-yl)-2-methylthieno[2,3-d]thiazole-5-carboxamide] was run?
**A.** Its value is “+++ (0.05-0.2 μM)”.

**Q.** `C[C@H](Nc1ccc(C(=O)N[C@H]2COc3cc(N4CCNCC4)ccc3C2)cn1)c1ccccc1` [Example 53, 6-(((S)-1-phenylethyl)amino)-N-((R)-7-(piperazin-1-yl)chroman-3-yl)nicotinamide] was tested. Which “USP28 A-1(b) IC50 range” value did it give?
**A.** Its value is “+ (>2 μM)”.

**Q.** For `O=C(N[C@@H]1COc2cc(N3CCNCC3)ccc2C1)c1cnc2c(ccn2C(F)F)c1` [Example 39, (S)-1-(difluoromethyl)-N-(7-(piperazin-1-yl)chroman-3-yl)-1H-pyrrolo[2,3-b]pyridine-5-carboxamide], which “USP28 A-1(b) IC50 range” value is on record?
**A.** Its value is “+ (>2 μM)”.

**Q.** Which “USP28 A-1(b) IC50 range” value does the source give for `O=C(N[C@H]1COc2cc(N3CC4CCC(C3)N4)ccc2C1)c1cnc2c(c1)CCCN2` [Example 50, N-((3R)-7-(3,8-diazabicyclo[3.2.1]octan-3-yl)chroman-3-yl)-5,6,7,8-tetrahydro-1,8-naphthyridine-3-carboxamide] here?
**A.** The value was “++ (0.2-2 μM)”.

**Q.** Which “USP28 A-1(b) IC50 range” value does the source give for `Cc1ccc2c(N)c(C(=O)N[C@H]3COc4cc(N5CCNCC5)cc(Cl)c4C3)sc2n1` [Example 48, (R)-3-amino-N-(5-chloro-7-(piperazin-1-yl)chroman-3-yl)-6-methylthieno[2,3-b]pyridine-2-carboxamide] here?
**A.** Its value is “+++ (0.05-0.2 μM)”.
